Experimental data as given in patent US4168206A, “Impregnated disk method for testing antifungal susceptibility” (Philadelphia College of Osteopathic Medicine, priority 1977, dated 1979).

How the values were obtained:
Geotrichum candidum [1] = experiment: MIC by broth dilution method, Geotrichum candidum; type: cell-based; settings: broth dilution method
Source text: (§1) The preparation of the nutrient media, the antifungal agents and the fungi to be tested in the present invention are similar to those reported in S. Shadomy and A. Espinel-Ingroff, "Susceptibility Testing Of Antifungal Agents", Ch. 63, pp. 569-574 in E. H. Lennett, E. H. Spaulding, and J. P. Truant, Eds., Manual Of Clinical Microbiology, 2nd Ed., American Society for Microbiology, Washington, D.C. (1974). This publication describes the susceptibility testing of antifungal agents, namely, amphotericin B, nystatin and 5-fluoro-cytosine (5-FC), by the "broth dilution method" and the "semisolid agar dilution method". At pages 570-571, it is stated:
(§2) In 10 duplicate runs with each strain tested, the variation in minimum inhibitory concentration averaged ±0.05 μg/ml.
(§3) *Broth dilution method conducted in accordance with S. Shadomy and E.
(§4) Espinel-Ingroff, "Susceptibility Testing of Antifungal Agents", Ch. 63,
(§5) pp. 569-574 in E. H. Spaulding and J. P. Truant, Eds., Manual Of Clinical
(§6) Microbiology, 2nd Ed., American Society for Microbiology, Washington, […]

Cryptococcus neoformans [2] = experiment: MIC by impregnated disk method, Cryptococcus neoformans; type: cell-based
Experimental: (§7) Stock solutions of the antifungal agents to be tested are preferably prepared by diluting the antifungal agents in the proper nutrient medium. It is presently preferred to prepare dilutions in 10 ml of the proper medium to give the following final concentrations when applied to the disks (all quantities in micrograms per milliliter): 0.05, 0.08, 0.09, 0.1; 0.1 increment increases to 0.9, 1.0; 0.5 increment increases to 10.0; and 12.0, 14.0, 20.0, 25.0 and 50.0. Disks have been prepared by placing 0.05 ml of the above dilutions of antifungal agent containing medium on 6.5 mm diameter disks in 0.01 or 0.02 ml increments. The impregnated disks are then allowed to dry at a temperature preferably below about 10° C. […] The disks may also be dried by a lyophilization or freeze drying process.
(§8) To perform the tests in accordance with the present inventions, disks impregnated with various concentrations of antifungal agent and nutrient medium and a control disk impregnated only with the corresponding nutrient medium are placed on the fungus to be tested which has been applied to the non-nutrient medium. The disks are the inoculated non-nutrient medium are then incubated at a suitable temperature for a sufficient time to promote growth of the fungus. Any temperature is suitable if it will promote growth of the fungus without adversely affecting the fungus or the activity of the antifungal agent or agents tested. The time of incubation can be determined by observing the extent of growth around the control disk. […] The zones of growth or inhibition around the disks were read at 6, 12, 24, 36 and 48 hours after the disks were placed on the tested fungus.
(§9) The minimum inhibitory concentration is defined as the lowest concentration of antifungal agent which inhibits visible growth. The disks containing concentrations of antifungal agents below the minimum inhibitory concentration show circumscribed growth of the fungus around the disk. Disks containing concentrations of antifungal agent at or above the minimum inhibitory concentration show no circumscribed growth.
(§10) Clinical isolates of various fungi listed in Table 1 were obtained from different patients diagnosed as having fungal infections. The fungal inocula were prepared by using a 24-48 hour cultures grown in yeast nitrogen base containing 1% glucose and 0.15% asparagine. After centrifuging, the supernatant was removed, the sedimented cells were washed twice with sterile distilled water and a cell suspension was adjusted to 80% transmission at 520 nm using a Beckman DB-GT grating spectrophotometer.
(§11) Sterile liquified 2% purified agar was placed in petri dishes and allowed to harden. The surface of the agar was inoculated with a sterile cotton swab saturated with a suspension of an organism. The uniformly swabbed plates were then allowed to dry.
(§12) Disks were prepared using the dilutions described above for amphotericin B, nystatin and 5-fluorocytosine. 0.05 ml of the dilutions of each antifungal agent diluted with the appropriate nutrient medium were pipetted on 6.5 mm diameter disks. The disks were dried at 4° C. after each application. Control disks were also prepared.
(§13) Several test disks and a control disk were placed in each petri dish containing the inoculated agar. The disks and petri dishes were then incubated at 29° C. and the minimum inhibitory concentration of the various concentrations of the antifungal agents were read at 6, 12, 24, 36 and 48 hours.
as §2

C. tropicalis [3] = experiment: MIC by broth dilution method, Candida tropicalis; type: cell-based; settings: C. tropicalis; broth dilution method
Source text: as §1, §2, §3, §4, §5, §6

[4] = cited from earlier work
Candida albicans [5] = experiment: MIC by broth dilution method, Candida albicans; type: cell-based
Source text: as §1, §2, §3, §4, §5, §6

Geotrichum candidum [6] = experiment: MIC by impregnated disk method, Geotrichum candidum; type: cell-based; settings: disk method
Experimental: as §7, §8
(§14) The minimum inhibitory concentration is defined as the lowest concentration of antifungal agent which inhibits visible growth. […]
(§15) Several test disks and a control disk were placed in each petri dish containing the inoculated agar. The disks and petri dishes were then incubated at 29° C. and the minimum inhibitory concentration of the various concentrations of the antifungal agents were read at 6, 12, 24, 36 and 48 hours. […]

C. tropicalis [7] = experiment: MIC by impregnated disk method, Candida tropicalis; type: cell-based; settings: C. tropicalis; disk method
Experimental: as §7, §8, §14, §15

Trichosporon sp. [8] = experiment: MIC by broth dilution method, Trichosporon sp.; type: cell-based; settings: Trichosporon sp.; broth dilution method
Source text: as §1, §2, §3, §4, §5, §6

C. parapsilosis [9] = experiment: MIC by impregnated disk method, Candida parapsilosis; type: cell-based
Experimental: as §7, §8, §9, §10, §11, §12, §13, §2

C. parapsilosis [10] = experiment: MIC by broth dilution method, Candida parapsilosis; type: cell-based
Source text: as §1, §2, §3, §4, §5, §6

Saccharomyces cerevisiae [11] = experiment: MIC by impregnated disk method, Saccharomyces cerevisiae; type: cell-based
Experimental: as §7, §8, §9, §10, §11, §12, §13, §2

Torulopsis glabrata [12] = experiment: MIC by impregnated disk method, Torulopsis glabrata; type: cell-based; settings: Torulopsis glabrata; disk method
Experimental: as §7, §8, §14, §15

Cryptococcus neoformans [13] = experiment: MIC by broth dilution method, Cryptococcus neoformans; type: cell-based
Source text: as §1, §2, §3, §4, §5, §6

Torulopsis glabrata [14] = experiment: MIC by broth dilution method, Torulopsis glabrata; type: cell-based; settings: Torulopsis glabrata; broth dilution method
Source text: as §1, §2, §3, §4, §5, §6

Trichosporon sp. [15] = experiment: MIC by impregnated disk method, Trichosporon sp.; type: cell-based; settings: Trichosporon sp.; disk method
Experimental: as §7, §8, §14, §15

Candida albicans [16] = experiment: MIC by impregnated disk method, Candida albicans; type: cell-based
Experimental: as §7, §8, §9, §10, §11, §12, §13, §2

Saccharomyces cerevisiae [17] = experiment: MIC by broth dilution method, Saccharomyces cerevisiae; type: cell-based
Source text: as §1, §2, §3, §4, §5, §6

Candida albicans [18] = experiment: Susceptibility to combination of antifungal agents on disks (Example 2); type: cell-based; settings: Candida albicans isolate; in combination with amphotericin B
Source text: (§16) The method of the present invention also may be used to test combinations of antifungal agents. In this method, more than one antifungal agent of known concentration is impregnated in each test disk.
(§17) Each disk is impregnated with a particular known concentration of at least one particular antifungal agent, except for the control disks. When the susceptibility of a fungus to combinations of antifungal agents is being tested, more than one antifungal agent is impregnated in each test disk.
(§18) The susceptibility of two other isolates to combinations of antifungal agents were tested by combining more than one antifungal agent on each test disk. A series of test disks were prepared containing various combinations of antifungal agents in various concentrations and were used in the method of the present invention. The results of this procedure are summarized in the following specific, non-limiting examples:
This is a significant reduction in amphotericin B.

Candida tropicalis = experiment: Susceptibility to combination of antifungal agents on disks (Example 3); type: cell-based; settings: in combination with amphotericin B 0.05 μg/ml
Source text: as §16, §17, §18
An isolate of Candida tropicalis was initially tested for amphotericin B susceptibility of 0.5 μg/ml. When a combination of amphotericin B and tetracycline were combined on the disks used in the testing procedure according to the present invention, effective inhibition of the isolate occurred using 0.05 μg/ml of amphotericin B and 0.2 μg/ml of tetracycline.

[19] = Cryptococcus neoformans isolate 1
[20] = Saccharomyces cerevisiae isolate 1

Question: Which “Minimum Inhibitory Concentration, Broth” value (Geotrichum candidum [1]) does the source give for C[C@@H]1[C@H](O)[C@@H](C)/C=C/C=C/CC/C=C/C=C/C=C/C=C/C(O[C@H]2O[C@H](C)[C@@H](O)[C@H](N)[C@@H]2O)CC2O[C@](O)(CC(O)C(O)CCC(O)CC(O)CC(O)CC(=O)O[C@H]1C)CC(O)C2C(=O)O (stereo partly drawn) [Nystatin, nystatin] here?
Answer: 4.50 µg/mL

Question: And the “Minimum Inhibitory Concentration, Disk” value (Cryptococcus neoformans [2]; C. neoformans isolate 2)?
Answer: 3.00 µg/mL

Question: What about the “Minimum Inhibitory Concentration, Disk” value (Cryptococcus neoformans [2]; [19]) of the same compound?
Answer: 2.00 µg/mL

Question: And the “Minimum Inhibitory Concentration, Broth” value (C. tropicalis [3])?
Answer: 6.00 µg/mL

Question: What about the stability in acid ([4]; in the presence of acid) of the same compound?
Answer: unstable in the presence of acid

Question: And the thermal stability ([4]; upon incubation)?
Answer: subject to thermal destruction upon incubation

Question: And the solubility in water ([4]; water)?
Answer: insoluble in water

Question: And the “Minimum Inhibitory Concentration, Broth” value (Candida albicans [5]; isolate 1)?
Answer: 1.50 µg/mL

Question: And the “Minimum Inhibitory Concentration, Broth” value (Candida albicans [5]; isolate 2)?
Answer: 5.00 µg/mL

Question: What about the “Minimum Inhibitory Concentration, Broth” value (Candida albicans [5]; isolate 3) of the same compound?
Answer: 1.50 µg/mL

Question: And the “Minimum Inhibitory Concentration, Broth” value (Candida albicans [5]; isolate 4)?
Answer: 3.50 µg/mL

Question: And the “Minimum Inhibitory Concentration, Broth” value (Candida albicans [5]; isolate 5)?
Answer: 4.00 µg/mL

Question: And the “Minimum Inhibitory Concentration, Broth” value (Candida albicans [5]; isolate 6)?
Answer: 6.00 µg/mL

Question: What about the “Minimum Inhibitory Concentration, Broth” value (Candida albicans [5]; isolate 7) of the same compound?
Answer: 0.20 µg/mL

Question: And the “Minimum Inhibitory Concentration, Disk” value (Geotrichum candidum [6])?
Answer: 5.00 µg/mL

Question: And the “Minimum Inhibitory Concentration, Disk” value (C. tropicalis [7])?
Answer: 5.50 µg/mL

Question: What about the “Minimum Inhibitory Concentration, Broth” value (Trichosporon sp. [8]) of the same compound?
Answer: 3.00 µg/mL

Question: What about the “Minimum Inhibitory Concentration, Disk” value (C. parapsilosis [9]; C. parapsilosis isolate 1) of the same compound?
Answer: 3.50 µg/mL

Question: What about the “Minimum Inhibitory Concentration, Disk” value (C. parapsilosis [9]; C. parapsilosis isolate 2) of the same compound?
Answer: 4.50 µg/mL

Question: And the “Minimum Inhibitory Concentration, Broth” value (C. parapsilosis [10]; C. parapsilosis isolate 1)?
Answer: 4.50 µg/mL

Question: And the “Minimum Inhibitory Concentration, Broth” value (C. parapsilosis [10]; C. parapsilosis isolate 2)?
Answer: 5.00 µg/mL

Question: And the “Minimum Inhibitory Concentration, Disk” value (Saccharomyces cerevisiae [11]; S. cerevisiae isolate 2)?
Answer: 1.00 µg/mL

Question: And the “Minimum Inhibitory Concentration, Disk” value (Saccharomyces cerevisiae [11]; [20])?
Answer: 2.00 µg/mL

Question: And the “Minimum Inhibitory Concentration, Disk” value (Torulopsis glabrata [12])?
Answer: 3.00 µg/mL

Question: And the “Minimum Inhibitory Concentration, Broth” value (Cryptococcus neoformans [13]; C. neoformans isolate 2)?
Answer: 3.00 µg/mL

Question: And the “Minimum Inhibitory Concentration, Broth” value (Cryptococcus neoformans [13]; [19])?
Answer: 2.50 µg/mL

Question: What about the “Minimum Inhibitory Concentration, Broth” value (Torulopsis glabrata [14]) of the same compound?
Answer: 4.50 µg/mL

Question: What about the “Minimum Inhibitory Concentration, Disk” value (Trichosporon sp. [15]) of the same compound?
Answer: 3.50 µg/mL

Question: And the “Minimum Inhibitory Concentration, Disk” value (Candida albicans [16]; isolate 1)?
Answer: 1.50 µg/mL

Question: And the “Minimum Inhibitory Concentration, Disk” value (Candida albicans [16]; isolate 2)?
Answer: 4.50 µg/mL

Question: What about the “Minimum Inhibitory Concentration, Disk” value (Candida albicans [16]; isolate 3) of the same compound?
Answer: 1.50 µg/mL

Question: And the “Minimum Inhibitory Concentration, Disk” value (Candida albicans [16]; isolate 4)?
Answer: 3.50 µg/mL

Question: What about the “Minimum Inhibitory Concentration, Disk” value (Candida albicans [16]; isolate 5) of the same compound?
Answer: 4.00 µg/mL

Question: And the “Minimum Inhibitory Concentration, Disk” value (Candida albicans [16]; isolate 6)?
Answer: 6.50 µg/mL

Question: And the “Minimum Inhibitory Concentration, Disk” value (Candida albicans [16]; isolate 7)?
Answer: 0.30 µg/mL

Question: What about the “Minimum Inhibitory Concentration, Broth” value (Saccharomyces cerevisiae [17]; S. cerevisiae isolate 2) of the same compound?
Answer: 2.00 µg/mL

Question: What about the “Minimum Inhibitory Concentration, Broth” value (Saccharomyces cerevisiae [17]; [20]) of the same compound?
Answer: 2.50 µg/mL

Question: For CN(C)C1C(=O)C(C(N)=O)=C(O)C2(O)C(=O)C3=C(O)c4c(O)cccc4C(C)(O)C3CC12 (stereo not drawn) [tetracycline], which tetracycline susceptibility (Candida albicans [18]) is on record?
Answer: 0.1 µg/mL

Question: And the “effective inhibition of the isolate, concentration of tetracycline” value (Candida tropicalis)?
Answer: 0.2 µg/mL
